Measurements as given in PMC8934569 (Cancer chemotherapy and pharmacology, 2021).

Test: Drug-related adverse events graded by NCI CTCAE version 4.0
Format: in vivo, human
[1] = Group 2 N=22: veliparib Days 1-4 + AC Day 3
[2] = Groups 3 and 4 N=27: veliparib Days 1-7 or 1-14 + AC Day 1

SMILES: C[C@]1(c2nc3c(C(N)=O)cccc3[nH]2)CCCN1 [veliparib, 2-[(R)-2-methylpyrrolidin-2-yl]-1H-benzimidazole-4-carboxamide]
- Anorexia, Gr 4 [1]: 0 (0) n (%)
- Dehydration, All Grades [1]: 1 (5) n (%)
- Dehydration, Gr 3 [1]: 1 (5) n (%)
- Dehydration, Gr 4 [1]: 0 (0) n (%)
- Fatigue, All Grades [1]: 16 (73) n (%)
- Fatigue, Gr 3 [1]: 0 (0) n (%)
- Fatigue, Gr 4 [1]: 0 (0) n (%)
- Febrile neutropenia, All Grades [1]: 3 (14) n (%)
- Febrile neutropenia, Gr 3 [1]: 2 (9) n (%)
- Febrile neutropenia, Gr 4 [1]: 2 (9) n (%)
- Hyponatremia, All Grades [1]: 1 (5) n (%)
- Hyponatremia, Gr 3 [1]: 1 (5) n (%)
- Hyponatremia, Gr 4 [1]: 0 (0) n (%)
- Hypophosphatemia, All Grades [1]: 0 (0) n (%)
- Hypophosphatemia, Gr 3 [1]: 0 (0) n (%)
- Hypophosphatemia, Gr 4 [1]: 0 (0) n (%)
- Hypotension, All Grades [1]: 0 (0) n (%)
- Hypotension, Gr 3 [1]: 0 (0) n (%)
- Hypotension, Gr 4 [1]: 0 (0) n (%)
- Lymphocyte count decreased, All Grades [1]: 13 (59) n (%)
- Lymphocyte count decreased, Gr 3 [1]: 10 (45) n (%)
- Lymphocyte count decreased, Gr 4 [1]: 2 (9) n (%)
- Nausea, All Grades [1]: 10 (45) n (%)
- Nausea, Gr 3 [1]: 0 (0) n (%)
- Nausea, Gr 4 [1]: 0 (0) n (%)
- Neutrophil count decreased, All Grades [1]: 19 (86) n (%)
- Neutrophil count decreased, Gr 3 [1]: 10 (45) n (%)
- Neutrophil count decreased, Gr 4 [1]: 13 (59) n (%)
- Platelet count decreased, All Grades [1]: 14 (64) n (%)
- Platelet count decreased, Gr 3 [1]: 4 (18) n (%)
- Platelet count decreased, Gr 4 [1]: 2 (9) n (%)
- Sepsis, All Grades [1]: 1 (5) n (%)
- Sepsis, Gr 3 [1]: 0 (0) n (%)
- Sepsis, Gr 4 [1]: 1 (5) n (%)
- Vomiting, All Grades [1]: 3 (14) n (%)
- Vomiting, Gr 3 [1]: 0 (0) n (%)
- Vomiting, Gr 4 [1]: 0 (0) n (%)
- White blood cell decreased, All Grades [1]: 21 (95) n (%)
- White blood cell decreased, Gr 3 [1]: 11 (50) n (%)
- White blood cell decreased, Gr 4 [1]: 14 (64) n (%)
- Anemia, All Grades [2]: 18 (67) n (%)
- Anemia, Gr 3 [2]: 11 (41) n (%)
- Anemia, Gr 4 [2]: 1 (4) n (%)
- Anorexia, All Grades [2]: 0 (0) n (%)
- Anorexia, Gr 3 [2]: 0 (0) n (%)
- Anorexia, Gr 4 [2]: 0 (0) n (%)
- Dehydration, All Grades [2]: 0 (0) n (%)
- Dehydration, Gr 3 [2]: 0 (0) n (%)
- Dehydration, Gr 4 [2]: 0 (0) n (%)
- Fatigue, All Grades [2]: 4 (15) n (%)
- Fatigue, Gr 3 [2]: 0 (0) n (%)
- Fatigue, Gr 4 [2]: 0 (0) n (%)
- Febrile neutropenia, All Grades [2]: 3 (11) n (%)
- Febrile neutropenia, Gr 3 [2]: 3 (11) n (%)
- Febrile neutropenia, Gr 4 [2]: 0 (0) n (%)
- Hyponatremia, All Grades [2]: 0 (0) n (%)
- Hyponatremia, Gr 3 [2]: 0 (0) n (%)
- Hyponatremia, Gr 4 [2]: 0 (0) n (%)
- Hypophosphatemia, All Grades [2]: 0 (0) n (%)
- Hypophosphatemia, Gr 3 [2]: 0 (0) n (%)
- Hypophosphatemia, Gr 4 [2]: 0 (0) n (%)
- Hypotension, All Grades [2]: 0 (0) n (%)
- Hypotension, Gr 3 [2]: 0 (0) n (%)
- Hypotension, Gr 4 [2]: 0 (0) n (%)
- Lymphocyte count decreased, All Grades [2]: 25 (93) n (%)
- Lymphocyte count decreased, Gr 3 [2]: 23 (85) n (%)
- Nausea, All Grades [2]: 6 (22) n (%)
- Nausea, Gr 3 [2]: 0 (0) n (%)
- Nausea, Gr 4 [2]: 0 (0) n (%)
- Neutrophil count decreased, All Grades [2]: 21 (78) n (%)
- Neutrophil count decreased, Gr 4 [2]: 19 (70) n (%)
- Platelet count decreased, All Grades [2]: 19 (70) n (%)
- Platelet count decreased, Gr 3 [2]: 7 (26) n (%)
- Platelet count decreased, Gr 4 [2]: 6 (22) n (%)
- Sepsis, All Grades [2]: 0 (0) n (%)
- Sepsis, Gr 3 [2]: 0 (0) n (%)
- Sepsis, Gr 4 [2]: 0 (0) n (%)
- Vomiting, All Grades [2]: 4 (15) n (%)
- Vomiting, Gr 3 [2]: 0 (0) n (%)
- Vomiting, Gr 4 [2]: 0 (0) n (%)
- White blood cell decreased, All Grades [2]: 24 (89) n (%)
- White blood cell decreased, Gr 3 [2]: 21 (78) n (%)
- White blood cell decreased, Gr 4 [2]: 14 (52) n (%)
- Patients given growth factor support after cycle 1 (across the whole trial (n=22 of 80)): 28%
- Patients requiring a dose reduction of veliparib (overall, 80 patients enrolled): 23 patients
